From US5798247A, “Organic-chemical compound with ice-inhibitory action” (BASF Aktiengesellschaft, priority 1997, dated 1998)

Target: T1, interleukin converting enzyme (ICE) (Homo sapiens, UniProt P29466)
T1 sequence (P29466 120-297 limits assumed): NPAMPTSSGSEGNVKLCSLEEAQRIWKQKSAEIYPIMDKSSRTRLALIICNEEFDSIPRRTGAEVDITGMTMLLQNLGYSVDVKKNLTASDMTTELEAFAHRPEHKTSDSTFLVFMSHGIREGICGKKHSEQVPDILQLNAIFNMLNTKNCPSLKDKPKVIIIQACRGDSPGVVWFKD
T1 sequence (P29466 317-404 limits assumed): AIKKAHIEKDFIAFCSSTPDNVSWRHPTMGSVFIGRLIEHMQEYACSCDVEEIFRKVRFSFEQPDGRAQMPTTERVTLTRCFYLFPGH
Assay: ICE inhibition (inhibition constant)
Format: biochemical
Conditions: reversible covalent binding (thiohemiacetal linkage) to ICE

## O=C(c1ccccc1)c1ccccn1 [2-Benzoylpyridine]
  Ki: ~1000 nM
